Measurements reported in patent US20010049373A1, “Materials and methods for killing nematodes and nematode eggs” (priority 2000, published 2001).

Experiments:
C. elegans = C. elegans nematode activity assay, 2-fold dilutions from 140 μM, visual evaluation at Day 4 (Example 3); type: in vivo; set-up: key: Dead: only stiff L1s (no movement); Dead (L4): worms are dead, but at a later larval stage; majority of worms are L1 (based on size); majority of worms are L2 (based on size); majority of worms are L3 (based on size); majority of worms are L4 (based on size); AD: majority of worms are adult; #AD: 5 adult worms or less; B!: sterile (0-25 progeny); B: low broodsize (25-100 progeny); ˜B: moderate broodsize (100-250 progeny); <: reduced broodsize (250-500 progeny); OK: no effect (˜1000+ progeny)
tomatoes or cucumbers = conditions: rates of up to 10 kg/ha; cited from earlier work
[1] = system: root-knot nematode, Meloidogyne incognita; conditions: cited from earlier work
[2] = system: Colorado potato beetle, potato tuberworm, beet armyworm, diamondback moth, gypsy moth, and the European corn borer; conditions: cited from earlier work

Molecule | visual evaluation of viability (C. elegans; 1.09 μM) | visual evaluation of viability (C. elegans; 2.2 μM) | visual evaluation of viability (C. elegans; 4.4 μM) | visual evaluation of viability (C. elegans; 8.8 μM) | visual evaluation of viability (C. elegans; 17.5 μM) | visual evaluation of viability (C. elegans; 35 μM) | visual evaluation of viability (C. elegans; 140 μM) | visual evaluation of viability (C. elegans; 70 μM) | toxicity to tomatoes or cucumbers (tomatoes or cucumbers) | activity against the root-knot nematode ([1]; Meloidogyne incognita) | potency relative to commercial contact nematicides ([1]; incorporated into soil at 0.16-0.25 kg/ha) | effect on insect pests [2]
O=C(NCC1CCN(C(=O)NCCC(c2ccccc2)c2ccccc2)CC1)c1cc(F)c(F)cc1F [AKC 116] | OK (no effect (˜1000+ progeny)) | OK (no effect (˜1000+ progeny)) | OK (no effect (˜1000+ progeny)) | B (low broodsize (25-100 progeny)) | B! (sterile (0-25 progeny)) | L3 |  |  |  |  |  | 
O=C(NCC1CCN(C(=O)NCCC(c2ccccc2)c2ccccc2)CC1)c1ccc(F)cc1F [AKC 117] | OK (no effect (˜1000+ progeny)) | OK (no effect (˜1000+ progeny)) | < (reduced broodsize (250-500 progeny)) | B (low broodsize (25-100 progeny)) | B! (sterile (0-25 progeny)) | L3 |  |  |  |  |  | 
O=C(NCC1CCN(C(=O)NCCC(c2ccccc2)c2ccccc2)CC1)c1cc(F)cc(F)c1 [AKC 118] | OK (no effect (˜1000+ progeny)) | OK (no effect (˜1000+ progeny)) | ˜B (moderate broodsize (100-250 progeny)) | B (low broodsize (25-100 progeny)) | L4/AD/B! | L3 | L2 |  |  |  |  | 
NCc1ccc(-c2ccccc2)cc1 [AKC 138] | OK (no effect (˜1000+ progeny)) | OK (no effect (˜1000+ progeny)) | OK (no effect (˜1000+ progeny)) | ˜B (moderate broodsize (100-250 progeny)) | L2 | L1 | L1 | L1 |  |  |  | 
Cc1ccc2c(Cl)cc(Cl)c(O)c2n1 [AKC 141] | OK (no effect (˜1000+ progeny)) | OK (no effect (˜1000+ progeny)) | OK (no effect (˜1000+ progeny)) | OK (no effect (˜1000+ progeny)) | < (reduced broodsize (250-500 progeny)) | L1 | L1 | L1 |  |  |  | 
CC[C@H](C)[C@H]1O[C@]2(CC(O)[C@@H]1C)C[C@@H]1C[C@@H](C/C=C(\C)[C@@H](OC3CC(OC)C(OC4CC(OC)C(O)C(C)O4)C(C)O3)[C@@H](C)/C=C/C=C3\CO[C@@H]4[C@H](O)C(C)=C[C@@H](C(=O)O1)[C@]34O)O2 (stereo partly drawn) [Avermectin B2a] |  |  |  |  |  |  |  |  | not toxic | active | 10-30 times | 
Avermectin B1 |  |  |  |  |  |  |  |  |  |  |  | effective
